Measured values reported in US11180474B2 (BRISTOL-MYERS SQUIBB COMPANY, priority 2016, dated 2021).

Assays:
human TLR8 = target: T1, human TLR8 (Homo sapiens, UniProt Q9NR97); test: TLR8 inhibition reporter assay (HEK-Blue cells, SEAP reporter, R848 stimulation); type: cell-based; conditions: HEK-Blue cells overexpressing human TLR8, R848 15.9 μM
T1 construct: host or cells: HEK-Blue cells
T1 sequence (Q9NR97 27-1041): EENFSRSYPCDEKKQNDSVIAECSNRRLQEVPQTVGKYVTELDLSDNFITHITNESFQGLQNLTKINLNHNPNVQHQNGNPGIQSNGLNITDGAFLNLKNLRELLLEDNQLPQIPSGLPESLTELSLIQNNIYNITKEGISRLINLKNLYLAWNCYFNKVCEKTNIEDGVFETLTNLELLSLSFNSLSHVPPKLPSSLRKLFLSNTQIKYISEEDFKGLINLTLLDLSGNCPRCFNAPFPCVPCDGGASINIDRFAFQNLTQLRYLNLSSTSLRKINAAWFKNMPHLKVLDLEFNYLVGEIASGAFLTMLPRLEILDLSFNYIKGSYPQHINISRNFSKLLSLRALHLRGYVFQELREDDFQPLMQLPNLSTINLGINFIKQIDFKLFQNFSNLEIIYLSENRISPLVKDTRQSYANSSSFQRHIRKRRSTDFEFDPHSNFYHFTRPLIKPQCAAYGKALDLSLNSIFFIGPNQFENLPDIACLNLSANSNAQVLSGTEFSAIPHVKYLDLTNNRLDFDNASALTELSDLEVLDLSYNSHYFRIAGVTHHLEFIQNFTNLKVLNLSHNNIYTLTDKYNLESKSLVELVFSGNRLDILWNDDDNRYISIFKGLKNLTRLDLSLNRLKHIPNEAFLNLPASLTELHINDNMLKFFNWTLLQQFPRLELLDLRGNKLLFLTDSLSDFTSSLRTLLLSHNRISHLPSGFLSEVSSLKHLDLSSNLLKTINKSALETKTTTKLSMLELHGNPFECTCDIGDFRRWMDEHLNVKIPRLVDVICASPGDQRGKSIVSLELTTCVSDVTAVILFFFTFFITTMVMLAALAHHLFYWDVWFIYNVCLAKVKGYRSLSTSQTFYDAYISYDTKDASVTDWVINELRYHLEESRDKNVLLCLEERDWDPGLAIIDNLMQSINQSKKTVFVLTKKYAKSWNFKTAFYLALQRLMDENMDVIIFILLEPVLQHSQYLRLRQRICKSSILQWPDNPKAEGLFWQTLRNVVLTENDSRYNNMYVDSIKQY
Outline: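 Dose-response testing from 0.05 nM to 50 μM final was done on reporter cells for 22 hours at 37° C. Secreted SEAP was then detected, and inhibition was calculated as percent reduction of the agonist-plus-DMSO signal compared with wells given a known inhibitor.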

human TLR9 = target: T2, human TLR9 (Homo sapiens, UniProt Q9NR96); test: TLR9 inhibition reporter assay (HEK-Blue cells, SEAP reporter, ODN2006 stimulation); type: cell-based; conditions: HEK-Blue cells overexpressing human TLR9, ODN2006 5 nM
T2 construct: host or cells: HEK-Blue cells
T2 sequence (Q9NR96 26-1032): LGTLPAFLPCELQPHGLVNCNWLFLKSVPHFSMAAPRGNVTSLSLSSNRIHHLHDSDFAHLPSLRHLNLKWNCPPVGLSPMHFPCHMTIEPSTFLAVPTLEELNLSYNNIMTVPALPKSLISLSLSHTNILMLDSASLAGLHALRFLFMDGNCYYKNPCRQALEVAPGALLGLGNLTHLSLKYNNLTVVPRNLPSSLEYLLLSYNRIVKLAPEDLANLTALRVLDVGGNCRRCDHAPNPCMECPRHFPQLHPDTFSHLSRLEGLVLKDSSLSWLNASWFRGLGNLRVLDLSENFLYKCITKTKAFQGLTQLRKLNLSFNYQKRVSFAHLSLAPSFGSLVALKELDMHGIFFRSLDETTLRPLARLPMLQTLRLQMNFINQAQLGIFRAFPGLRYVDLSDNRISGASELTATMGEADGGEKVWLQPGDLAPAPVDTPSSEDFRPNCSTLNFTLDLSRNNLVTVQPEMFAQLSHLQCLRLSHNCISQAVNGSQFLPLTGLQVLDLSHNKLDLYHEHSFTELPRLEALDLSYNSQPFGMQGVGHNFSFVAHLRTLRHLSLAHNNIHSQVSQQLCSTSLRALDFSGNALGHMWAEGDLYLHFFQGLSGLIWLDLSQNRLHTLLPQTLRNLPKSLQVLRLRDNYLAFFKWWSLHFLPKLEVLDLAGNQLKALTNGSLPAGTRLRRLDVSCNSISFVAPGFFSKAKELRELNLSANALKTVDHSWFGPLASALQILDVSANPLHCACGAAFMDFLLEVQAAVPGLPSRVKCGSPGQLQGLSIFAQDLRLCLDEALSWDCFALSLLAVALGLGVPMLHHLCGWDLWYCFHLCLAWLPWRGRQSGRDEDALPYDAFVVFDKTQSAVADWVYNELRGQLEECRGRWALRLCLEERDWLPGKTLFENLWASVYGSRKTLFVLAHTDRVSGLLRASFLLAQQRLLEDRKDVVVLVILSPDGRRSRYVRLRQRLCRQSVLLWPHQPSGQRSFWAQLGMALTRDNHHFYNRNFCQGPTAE
Outline: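 Screening used HEK-Blue cells overexpressing one human TLR (7, 8 or 9) and an IFN-β minimal promoter–NF-κB/AP-1 SEAP construct. Stimulation lasted 22 h at 37 °C with receptor-specific agonist: gardiquimod, R848 or ODN2006 at 7.5 μM, 15.9 μM and 5 nM.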

| Structure (SMILES) | IC50 (human TLR8) [nM] | IC50 (human TLR9) [nM] |
| --- | --- | --- |
| COc1ccc(-c2[nH]c3ccc(C4CCN(C5CCCN(C)CC5)CC4)cc3c2C)cc1OC (stereo not shown) [Example 91, 2-(3,4-dimethoxyphenyl)-3-methyl-5-(1-(1-methylazepan-4-yl)piperidin-4-yl)-1H-indole] | 352 | 313 |
| COc1ccc(-c2[nH]c3ccc(C4CCN(C5CCCN(C6CCCC6)CC5)CC4)cc3c2C)cc1OC (stereo not shown) [Example 93, 5-(1-(1-cyclopentylazepan-4-yl)piperidin-4-yl)-2-(3,4-dimethoxyphenyl)-3-methyl-1H-indole] | 302 | 237 |
| COc1ccc(-c2[nH]c3ccc(C4CCN(C5CCN(CCC(F)(F)F)CC5)CC4)cc3c2C)cc1OC [Example 50, 2-(3,4-dimethoxyphenyl)-3-methyl-5-(1′-(3,3,3-trifluoropropyl)-[1,4′-bipiperidin]-4-yl)-1H-indole] | 510 | 442 |
| COc1ccc(-c2[nH]c3ccc(C4CCN(C5CCN(Cc6cccs6)CC5)CC4)cc3c2C)cc1OC [Example 64, 2-(3,4-dimethoxyphenyl)-3-methyl-5-(1′-(thiophen-2-ylmethyl)-[1,4′-bipiperidin]-4-yl)-1H-indole] | 195 | 112 |
| CNCCN1CCC(c2ccc3[nH]c(-c4ccc(OC)c(OC)c4)c(CC(F)(F)F)c3c2)CC1 [Example 413, 2-(4-(2-(3,4-dimethoxyphenyl)-3-(2,2,2-trifluoroethyl)-1H-indol-5-yl)piperidin-1-yl)-N-methylethanamine] | 28 | 626 |
| COc1ccc(-c2[nH]c3ccc(C4CCN(C5CCN(Cc6cncn6C)CC5)CC4)cc3c2C)cc1OC [Example 59, 2-(3,4-dimethoxyphenyl)-3-methyl-5-(1′-((1-methyl-1H-imidazol-5-yl)methyl)-[1,4′-bipiperidin]-4-yl)-1H-indole] | 187 | 180 |
| COc1ccc(-c2[nH]c3ccc(C4CCN(C5CCN(CC(O)CO)CC5)CC4)cc3c2C)cc1OC (stereo not shown) [Example 52, 3-(4-(2-(3,4-dimethoxyphenyl)-3-methyl-1H-indol-5-yl)-[1,4′-bipiperidin]-1′-yl)propane-1,2-diol] | 333 | 268 |
| COc1ccc(-c2[nH]c3ccc(C4CCN(C(C)CO)CC4)cc3c2C)cc1OC (stereo not shown) [Example 43, 2-(4-(2-(3,4-dimethoxyphenyl)-3-methyl-1H-indol-5-yl)piperidin-1-yl)propan-1-ol] | 926 | 2760 |
| CCCCCN1CCC(N2CCC(c3ccc4[nH]c(-c5ccc(OC)c(OC)c5)c(C)c4c3)CC2)CC1 [Example 55, 2-(3,4-dimethoxyphenyl)-3-methyl-5-(1′-pentyl-[1,4′-bipiperidin]-4-yl)-1H-indole] | 293 | 72 |
| COc1ccc(-c2[nH]c3ccc(C4CCN(C5CCCN(CC(C)C)CC5)CC4)cc3c2C)cc1OC (stereo not shown) [Example 95, 2-(3,4-dimethoxyphenyl)-5-(1-(1-isobutylazepan-4-yl)piperidin-4-yl)-3-methyl-1H-indole] | 195 | 115 |
| COc1ccc(-c2[nH]c3ccc(C4CCN(C(=O)CN5CCN(C)CC5)CC4)cc3c2C)cc1OC [Example 409, 1-(4-(2-(3,4-dimethoxyphenyl)-3-methyl-1H-indol-5-yl)piperidin-1-yl)-2-(4-methylpiperazin-1-yl)ethan-1-one] | 11200 | 2350 |
| COc1ccc(-c2[nH]c3ccc(C4CCN(C5CCN(CC(C)(C)CO)CC5)CC4)cc3c2C)cc1OC [Example 69, 3-(4-(2-(3,4-dimethoxyphenyl)-3-methyl-1H-indol-5-yl)-[1,4′-bipiperidin]-1′-yl)-2,2-dimethylpropan-1-ol] | 317 | 174 |
| COc1ccc(-c2[nH]c3ccc(C4CCN(C5CCN(CC6CCCC6)CC5)CC4)cc3c2C)cc1OC [Example 65, 5-(1′-(cyclopentylmethyl)-[1,4′-bipiperidin]-4-yl)-2-(3,4-dimethoxyphenyl)-3-methyl-1H-indole] | 41400 | 112 |
| COc1ccc(-c2[nH]c3ccc(C4CCN(C5CCN(CC6CC6)CC5)CC4)cc3c2C)cc1OC [Example 3, 5-(1′-(cyclopropylmethyl)-[1,4′-bipiperidin]-4-yl)-2-(3,4-dimethoxyphenyl)-3-methyl-1H-indole] | 216 | 117 |
| CCN(CC)C(=O)C1CCCN(CC(=O)N2CCC(c3ccc4[nH]c(-c5ccc(OC)c(OC)c5)c(CC(F)(F)F)c4c3)CC2)C1 (stereo not shown) [Example 420, 1-(2-(4-(2-(3,4-dimethoxyphenyl)-3-(2,2,2-trifluoroethyl)-1H-indol-5-yl)piperidin-1-yl)-2-oxoethyl)-N,N-diethylpiperidine-3-carboxamide] | 25 | 279 |
| COc1ccc(-c2[nH]c3ccc(C4CCN(C(=O)CN5CCCC(C(=O)N(C)C)C5)CC4)cc3c2CC(F)(F)F)cc1OC (stereo not shown) [Example 419, 1-(2-(4-(2-(3,4-dimethoxyphenyl)-3-(2,2,2-trifluoroethyl)-1H-indol-5-yl)piperidin-1-yl)-2-oxoethyl)-N,N-dimethylpiperidine-3-carboxamide] | 47 | 2950 |
| COc1ccc(-c2[nH]c3ccc(C4CCN(C5CCN(C6CCC(C)CC6)CC5)CC4)cc3c2C)cc1OC (stereo not shown) [Example 80, 2-(3,4-dimethoxyphenyl)-3-methyl-5-(1′-(4-methylcyclohexyl)-[1,4′-bipiperidin]-4-yl)-1H-indole] | 284 | 80 |
| COc1ccc(-c2[nH]c3ccc(C4CCN(C5CCN(C6CCCCC6)CC5)CC4)cc3c2C)cc1OC [Example 68, 5-(1′-cyclohexyl-[1,4′-bipiperidin]-4-yl)-2-(3,4-dimethoxyphenyl)-3-methyl-1H-indole] | 182 | 88 |
| COc1ccc(-c2[nH]c3ccc(C4CCN(C5CCN(C6CCCC6)CC5)CC4)cc3c2C)cc1OC [Example 62, 5-(1′-cyclopentyl-[1,4′-bipiperidin]-4-yl)-2-(3,4-dimethoxyphenyl)-3-methyl-1H-indole] | 217 | 196 |
| COc1ccc(-c2[nH]c3ccc(C4CCN(CC5CCCCN5C)CC4)cc3c2C)cc1OC (stereo not shown) [Example 49, 2-(3,4-dimethoxyphenyl)-3-methyl-5-(1-((1-methylpiperidin-2-yl)methyl)piperidin-4-yl)-1H-indole] | 260 | 550 |
